These results are taken from ChEMBL document CHEMBL2169839 (J Med Chem, 2012).

Assay [1] deals with T1, Aldo-keto reductase family 1 member C2 (Homo sapiens, UniProt P52895).
T1 sequence (P52895 whole entry): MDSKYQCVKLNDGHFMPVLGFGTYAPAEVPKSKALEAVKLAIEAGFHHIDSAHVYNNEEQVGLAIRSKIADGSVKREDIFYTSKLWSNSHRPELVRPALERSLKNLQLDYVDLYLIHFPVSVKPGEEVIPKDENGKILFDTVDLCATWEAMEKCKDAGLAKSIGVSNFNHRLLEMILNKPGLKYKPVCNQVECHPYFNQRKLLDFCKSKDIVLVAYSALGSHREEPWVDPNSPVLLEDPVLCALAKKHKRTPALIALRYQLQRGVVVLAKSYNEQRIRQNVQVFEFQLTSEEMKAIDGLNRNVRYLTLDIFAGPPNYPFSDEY

Assay [2] concerns the target T2, Aldo-keto reductase family 1 member C4 (Homo sapiens, UniProt P17516).
T2 sequence (P17516 whole entry): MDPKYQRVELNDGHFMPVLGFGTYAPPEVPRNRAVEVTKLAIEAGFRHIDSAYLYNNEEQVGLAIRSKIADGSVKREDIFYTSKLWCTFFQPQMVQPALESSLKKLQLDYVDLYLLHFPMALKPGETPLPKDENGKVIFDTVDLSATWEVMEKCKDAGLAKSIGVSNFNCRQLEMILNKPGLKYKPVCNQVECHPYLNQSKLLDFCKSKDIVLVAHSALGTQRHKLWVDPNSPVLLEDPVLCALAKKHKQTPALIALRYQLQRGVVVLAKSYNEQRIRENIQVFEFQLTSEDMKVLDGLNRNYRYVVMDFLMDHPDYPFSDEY

Assay [3] addresses T3, Aldo-keto reductase family 1 member C1 (Homo sapiens, UniProt Q04828).
T3 sequence (Q04828 whole entry): T1 sequence (P52895 whole entry) with V38T, H47R, V54L, S87C, M151V, H170R, L172Q

Assay [4] has as its target T4, Aldo-keto reductase family 1 member C3 (Homo sapiens, UniProt P42330).
T4 sequence (P42330 whole entry): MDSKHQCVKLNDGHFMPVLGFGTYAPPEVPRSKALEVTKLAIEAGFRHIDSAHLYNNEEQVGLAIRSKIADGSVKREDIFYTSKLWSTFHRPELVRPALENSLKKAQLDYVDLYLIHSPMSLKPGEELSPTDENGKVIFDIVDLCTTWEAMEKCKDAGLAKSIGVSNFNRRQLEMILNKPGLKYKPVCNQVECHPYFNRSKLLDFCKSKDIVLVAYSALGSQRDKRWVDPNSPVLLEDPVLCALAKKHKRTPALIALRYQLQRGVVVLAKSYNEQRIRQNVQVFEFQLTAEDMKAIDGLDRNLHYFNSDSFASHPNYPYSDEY
In words: Inhibition of AKR1C3 overexpressed in human HCT116 cells assessed as inhibition of PR-104A conversion to hydroxylamine after 2 hrs by LC-MS/MS analysis.

The target of assay [5] is T4, Aldo-keto reductase family 1 member C3. Description: biochemical.
Description: Inhibition of human recombinant N-terminal His6-tagged AKR1C3 expressed in Escherichia coli BL21(DE3) cells using 8-Acetyl-2,3,5,6-tetrahydro-1H,4H-11-oxa-3a-aza-benzo[de]anthracen-10-one as substrate after 1 hr by fluorimetric analysis

Changes are numbered by the printed parent chain. Where only a bound is given, the exact number is not on record here.

Consider `O=C(O)c1cn(S(=O)(=O)c2ccc(Br)cc2)c2ccccc12`, for which the IC50 is greater than 30 µM in assay [1]; greater than 30 µM in assay [2]; 0.83 µM in assay [3]; 407 nM in assay [4]; 68 nM in assay [5].
Take `O=C(O)c1cccc(S(=O)(=O)N2Cc3ccccc3C2)c1`: the half-inhibitory concentration (IC50) in assay [1] was greater than 30 µM; in assay [2], greater than 30 µM; in assay [3] it was 3.89 µM; in assay [4], 884 nM; in assay [5] it was 47 nM.
Take `O=C(O)[C@@H]1CCCN(S(=O)(=O)c2ccc3ccccc3c2)C1`: the IC50 in assay [1] is greater than 30 µM; in assay [2] it was greater than 30 µM; in assay [3], greater than 30 µM; in assay [4], greater than 1000 nM; in assay [5], 32 nM.
`O=C(O)c1cccc(S(=O)(=O)N2CCc3cc(O)ccc3C2)c1`: the IC50 in assay [1] was greater than 30 µM; in assay [2] it was greater than 30 µM; in assay [3], greater than 30 µM; in assay [4], greater than 1000 nM; in assay [5], 27 nM.
Turning to `Cc1ccc2c(c1)CN(S(=O)(=O)c1cccc(C(=O)O)c1)CC2`, the IC50 was greater than 30 µM in assay [1]; greater than 30 µM in assay [2]; greater than 30 µM in assay [3]; 29 nM in assay [4]; 13 nM in assay [5].
On to `O=C(O)c1cccc(S(=O)(=O)N2CCc3cc([N+](=O)[O-])ccc3C2)c1`, for which the IC50 in assay [1] was greater than 30 µM; in assay [2], greater than 30 µM; in assay [3], greater than 30 µM; in assay [4] it was greater than 1000 nM; in assay [5] it was 22 nM.
For `CC1c2ccccc2CCN1S(=O)(=O)c1cccc(C(=O)O)c1` (stereo not given), the IC50 in assay [1] is greater than 30 µM; in assay [2], greater than 30 µM; in assay [3], greater than 30 µM; in assay [4] it was 24 nM; in assay [5] it was 27 nM.
With `O=S(=O)(c1cccc(-c2nnn[nH]2)c1)N1CCc2ccccc2C1`, the IC50 in assay [1] was greater than 30 µM; in assay [2], greater than 30 µM; in assay [3], greater than 30 µM; in assay [4], 897 nM; in assay [5], 9.5 nM.
Regarding `O=C(O)c1cccc(S(=O)(=O)N2CCc3ccccc3C2)c1`, the IC50 in assay [1] is greater than 30 µM; in assay [2], greater than 30 µM; in assay [3], 20.3 µM; in assay [4], 27 nM; in assay [5] it was 13 nM.
`O=C(O)c1cccc(S(=O)(=O)N2CCc3c(Br)cccc3C2)c1`: the IC50 in assay [1] is greater than 30 µM; in assay [2] it was greater than 30 µM; in assay [3] it was greater than 30 µM; in assay [4], 14 nM; in assay [5], 11 nM.
As for `O=C(O)c1cccc(S(=O)(=O)N2CCc3sccc3C2)c1`, the 50% inhibitory concentration (IC50) was greater than 30 µM in assay [1]; greater than 30 µM in assay [2]; greater than 30 µM in assay [3]; 34 nM in assay [4]; 25 nM in assay [5].
Regarding `O=C(O)c1cccc(S(=O)(=O)N2CCCc3ccccc32)c1`, the IC50 in assay [1] is greater than 30 µM; in assay [2], greater than 30 µM; in assay [3] it was greater than 30 µM; in assay [4], greater than 1000 nM; in assay [5] it was 200 nM.
As to `O=C(NCCc1ccncc1)c1cccc(S(=O)(=O)N2CCc3ccccc3C2)c1`, the IC50 in assay [1] was greater than 30 µM; in assay [2] it was greater than 30 µM; in assay [3], greater than 30 µM; in assay [4], 35 nM; in assay [5] it was 58 nM.
For `Cc1ccc2c(c1)CCN(S(=O)(=O)c1cccc(C(=O)O)c1)C2`, the IC50 in assay [1] was greater than 30 µM; in assay [2], greater than 30 µM; in assay [3], greater than 30 µM; in assay [4], 52 nM; in assay [5] it was 17 nM.
For the compound `CN(C)C(=O)c1cccc(S(=O)(=O)N2CCc3ccccc3C2)c1`, the IC50 is greater than 30 µM in assay [1]; greater than 30 µM in assay [2]; greater than 30 µM in assay [3]; 14 nM in assay [4]; 53 nM in assay [5].
For `O=C(O)c1ccc(S(=O)(=O)N2CCc3ccccc3C2)cc1`, the IC50 is greater than 30 µM in assay [1]; greater than 30 µM in assay [2]; greater than 30 µM in assay [3]; greater than 1000 nM in assay [4]; 1240 nM in assay [5].

One may read the IC50 as the concentration at which inhibition is half-maximal.
